Measurements published in patent US11597909B2, “Method for the formation of renal tubules” (LEIBNIZ-INSTITUT FÜR POLYMER-FORSCHUNG DRESDEN E.V., priority 2016, dated 2023).

Legend:
[1] = test system: tubule organoids from HK-2 cells; test: Apoptosis by caspase-3 immunocytochemistry in tubule organoids; assay type: cell-based, human; conditions: incubation with cisplatin, HK-2 tubule organoids
From the text: (§1) The present invention can be used as an assay for nephrotoxicity.

[2] = test system: tubule organoids from HK-2 cells; test: Expression of kidney injury biomarker KIM-1 in tubule structures; assay type: cell-based, human; conditions: incubation with cisplatin, HK-2 tubule structures
From the text: as §1

SMILES: N.N.[Cl][Pt][Cl] [cisplatin]
- apoptosis (cell death), caspase-3 immunocytochemistry [1]: increase in apoptosis
- expression of kidney injury biomarker KIM 1 [2]: expressed the injury-indicating kidney biomarker KIM 1
